Results on one compound are retold here after US20210395210A1, “INHIBITION OF BACTERIAL CHAPERONIN SYSTEMS” (THE TRUSTEES OF INDIANA UNIVERSITY, priority 2018, published 2021).

Bounds are passed on as bounds.

Series [1] relates to S. aureus Rosenbach (ATCC 25923) biofilm formation. The series can be described thus: S. aureus biofilm prevention assay (crystal violet). In kind it is cell-based. To be noted: Staphylococcus aureus, ATCC25923, 24 h, read-out: S. aureus Proliferation & Biofilm Assay EC50 Preventing Biofilm Formation. The procedure: The biofilm prevention assay was carried out with S. aureus Rosenbach (ATCC 25923) using a quantitative crystal violet-based adherence assay on 96-well plates. S. aureus (ATCC 25923) bacteria were streaked onto a Tryptic Soy Broth (TSB) agar plate and grown overnight at 37° C. A fresh aliquot of TSB media was inoculated with a single bacterial colony and the cultures were grown overnight at 37° C. with shaking (250 rpm). The overnight culture was then sub-cultured (1:5 dilution) into a fresh aliquot of TSB media supplemented to a final concentration of 0.5% glucose and grown at 37° C. for 1 h with shaking, then diluted into fresh TSB media supplemented with 0.5% glucose to achieve a final OD600 reading of 0.01. Aliquots of the diluted culture (100 μL) were dispensed to 96 well polystyrene plates along with addition of 1 μL test compounds in DMSO. The inhibitor concentration range during the assay was 100 μM to 46 nM (3-fold dilution series). A second set of baseline control plates were prepared analogously, but without any bacteria added, to correct for possible compound absorbance and/or precipitation. Plates were sealed with “Breathe Easy” oxygen permeable membranes (Diversified Biotech) and left to incubate at 37° C. without shaking (stagnant assay) until the biofilm was formed. After 24 h, the planktonic cultures were removed and the plates were washed gently 2-3 times with 200 μl of water. Next, the plates were air dried and the adherent biofilms were stained with 150 μL of crystal violet solution (2.3% crystal violet in 20% Ethanol, Sigma Aldrich #HT90132) for 15 minutes at R.T. The unbound crystal violet stain was removed, then plates were gently washed again with running water and air dried for 10 min. Quantitative assessment of biofilm formation was obtained by adding 100 μL of developer solution (4:1:5 mixture of MeOH:AcOH:H2O) per well. Well absorbance was then read at 595 nm using a Molecular Devices SpectraMax Plus384 microplate reader. […] Results presented represent the averages of EC50 values obtained from at least triplicate experiments.
Establishing biofilms is another effective mechanism by which S. aureus can evade the effects of many current antibiotics, including vancomycin. […] Briefly, test compounds (1, 2, 5, 8, 11, and vancomycin) were incubated with S. aureus bacteria in media supplemented with 0.5% glucose (to support biofilm formation) for 24 h at 37° C. After 24 h, the supernatant was removed, the wells were gently washed, and the biofilm that had formed on the well surfaces were stained with crystal-violet and quantified by UV-Vis spectroscopy.

Series [2] in a line: Liver cell viability assay (Alamar Blue). The following applies: human. The procedure:
HEK 293 cells were maintained in MEM medium (Corning Cellgro, 10-009 CV) supplemented with 10% FBS (Sigma, F2242). […] Cells at 80% confluence were harvested and diluted in growth medium, then 45 μL of the THLE-3 cells (1,500 cells/well) or HEK 293 cells (1,500 cells/well) were dispensed per well, and plates were sealed with “Breathe Easy” oxygen permeable membranes (Diversified Biotech) and incubated at 37° C., 5% CO2, for 24 h.
(Resazurin is reduced to fluorescent resorufin, in cell work by metabolically active cells.)

Another series addresses T1, E. coli GroEL/ES (Escherichia coli, UniProt P0A6F5).
T1 construct: made in house; host or cells: GroEL in E. coli DH5α; GroES in E. coli BL21 (DE3)
In words: GroEL/ES-mediated dRho refolding assay. In kind it is biochemical. The protocol: Reagent preparation: For this assay, five primary reagent stocks were prepared: 1) GroEUES-dRho binary complex stock; 2) ATP initiation stock; 3) thiocyanate enzymatic assay stock; 4) formaldehyde quench stock; 5) ferric nitrate reporter stock. Denatured rhodanese (dRho) was prepared by 3-fold dilution of rhodanese (Roche product #R1756, diluted to 10 mg/mL with H2O) with denaturant buffer (12 M Urea, 50 mM Tris-HCl, pH 7.4, and 10 mM DTT). Rhodanese was completely denatured by incubating at room temperature for 45 min. The binary complex solution was prepared by slowly adding the dRho stock to a stirring stock of concentrated GroEL in modified folding buffer (50 mM Tris-HCl, pH 7.4, 50 mM KCl, 10 mM MgCl2, 5 mM Na2S2O3, and 1 mM DTT). The solution was centrifuged at 16,000×g for 5 minutes, and the supernatant was collected and added to a solution of GroES in modified folding buffer to give final protein concentrations of 100 nM GroEL, 120 nM GroES, and 80 nM dRho. The binary complex stock was prepared immediately prior to use. For the ATP initiation stock, ATP solid was diluted into modified folding buffer to a final concentration of 2.0 mM. The thiocyanate enzymatic assay stock was prepared to contain 70 mM KH2PO4, 80 mM KCN, and 80 mM Na2S2O3 in water. The formaldehyde quench solution contained 30% formaldehyde in water. The ferric nitrate reporter stock contained 8.5% w/v Fe(NO3)3 and 11.3% v/v HNO3 in water.
Assay Protocol: First, 10 μL aliquots of the GroEL/ES-dRho complex stock were dispensed into clear, 384-well polystyrene plates. […] The chaperonin-mediated refolding cycle was initiated by addition of 10 μL of ATP stock (reagent concentrations during refolding cycle: 50 nM GroEL, 60 nM GroES, 40 nM dRho, 1 mM ATP, and compounds of 250 μM to 114 nM, 3-fold dilution series). After incubating for 45 minutes at 37° C. for the refolding cycle, 30 μL of the thiocyanate enzymatic assay stock was added and incubated for 60 min at R.T. for the refolded rhodenase enzymatic reporter reaction. The reporter reaction was quenched by adding 10 μL of the formaldehyde quench stock, and then 40 μL of the ferric nitrate reporter stock was added to quantify the amount of thiocyanate produced during the enzymatic reporter reaction, which is proportional to the amount of dRho refolded by GroEL/ES. After incubating at R.T. for 15 min, the absorbance by Fe(SCN)3 was measured at 460 nm using a Molecular Devices SpectraMax Plus384 microplate reader. A second set of baseline control plates were prepared analogously, but without GroEL/ES-dRho protein binary solution, to correct for possible interference from compound absorbance or turbidity. […] Results presented represent the averages of IC50 values obtained from at least quadriplicate (duplicate of duplicate) replicates.
After generating the compound library, we next employed a series of well-established biochemical assays to evaluate compound inhibitory effects against the GroEUES chaperonin system (See FIG. 6 and FIG. 7). We used E. coli GroEUES as the surrogate chaperonin system for refolding of the reporter enzymes malate dehydrogenase (MDH) and rhodanese (Rho). Briefly, binary complexes are formed between GroEL and denatured MDH or Rho, which are then refolded to their native states upon addition of ATP and the GroES co-chaperonin. Enzymatic activities of refolded native MDH or Rho act as coupled reporters of GroEUES refolding functions since in the presence of chaperonin inhibitors, no functional reporter enzymes are generated.

T1 sequence (P0A6F5 2-548): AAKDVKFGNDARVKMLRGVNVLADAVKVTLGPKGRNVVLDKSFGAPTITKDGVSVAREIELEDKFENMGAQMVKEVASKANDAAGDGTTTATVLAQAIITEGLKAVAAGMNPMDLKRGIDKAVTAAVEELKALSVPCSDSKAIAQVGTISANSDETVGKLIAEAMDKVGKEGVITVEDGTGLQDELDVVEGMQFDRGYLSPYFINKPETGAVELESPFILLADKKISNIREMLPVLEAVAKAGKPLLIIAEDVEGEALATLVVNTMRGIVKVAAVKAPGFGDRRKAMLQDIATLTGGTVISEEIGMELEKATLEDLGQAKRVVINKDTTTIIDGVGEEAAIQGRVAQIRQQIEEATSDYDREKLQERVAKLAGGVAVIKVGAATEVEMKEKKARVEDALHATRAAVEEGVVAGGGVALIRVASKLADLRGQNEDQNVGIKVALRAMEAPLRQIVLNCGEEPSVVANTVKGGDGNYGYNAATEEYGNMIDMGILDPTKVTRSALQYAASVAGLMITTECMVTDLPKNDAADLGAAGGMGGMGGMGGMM

With `CN[C@H](CC(C)C)C(=O)N[C@H]1C(=O)N[C@@H](CC(N)=O)C(=O)N[C@H]2C(=O)N[C@H]3C(=O)N[C@H](C(=O)N[C@H](C(=O)O)c4cc(O)cc(O)c4-c4cc3ccc4O)[C@H](O)c3ccc(c(Cl)c3)Oc3cc2cc(c3O[C@@H]2O[C@H](CO)[C@@H](O)[C@H](O)[C@H]2O[C@H]2C[C@](C)(N)[C@H](O)[C@H](C)O2)Oc2ccc(cc2Cl)[C@H]1O` [Vancomycin, vancomycin, reference compound], in series [1], the EC50 amounted to 540 nM. In addition, in series [2], the CC50 (usually the concentration at which the toxic effect on the cells reaches its halfway point) at 48 h was greater than 100 µM. Besides, the concentration for half-maximal inhibition (IC50) (in general, the concentration needed to halve the response being measured) at E. coli GroEL/ES is greater than 100 µM. For the same compound, at E. coli GroEL/ES (log of IC50 (μM scale), with standard deviation), the “log(IC50) GroEL/ES-dRho Refolding” value was greater than 2.
